Here are results for 30 compounds from publication PMC3625562, “Rapid Screening of Drug-Protein Binding Using High-Performance Affinity Chromatography with Columns Containing Immobilized Human Serum Albumin” (Journal of Analytical Methods in Chemistry, 2013).

As usually defined, the fraction unbound is free concentration divided by total concentration. Low readings indicate extensive binding, high ones weak binding.

Series [1] deals with plasma proteins. The note with it: cited from earlier work.
The target in series [2] is T1, immobilized human serum albumin (HSA) (Homo sapiens, UniProt P02768). The series can be described thus: Drug-protein binding screening by HPLC on immobilized HSA column (HSA-HPLC). The note with it: 0.5 mL/min.
Experimental: (§1) Compounds were dissolved with water or water-ethanol (with different ratio) to a concentration of 100 µg/mL. The chromatographic peak was attained on a 5 μm Chiral-HSA, 50 × 3 mm column (Chrom Tech, France), which was preceded by an on-line filter. The ChemStation for LC 3D software was used for data acquiring and handling. As a generic rapid method, an isocratic mobile phase was selected. To simulate physiology environment, a mobile phase consisting of 0.9% NaCl (pH 7.0) at a flow rate of 0.5 mL/min was used. 10 µL aliquot of analyte solution was injected to HPLC to be analyzed.
The subject of series [3] is plasma proteins. The series can be described thus: PPB experiment by ultrafiltration. The note with it: plasma, 10, 40, 200, 100, 2000, 100 ng/mL for A, B, C, D, E, F, 37°C 30 min, Microcon YM-30, triplicates; for fraction unbound at 30 min: plasma, PPB by ultrafiltration.
Experimental: (§2) PPB Experiment for Test Compounds by Ultrafiltration
(§3) The stock solution (1.0 or 2 mg/mL) of test compounds was prepared by dissolving appropriate amount of compounds in water-methanol (50 : 50, v/v) mixture. Working solution (1, 10 or 100 μg/mL) was attained by diluted stock solution with water. A different volume of the working solution was added to a 2 mL eppendorf vial and evaporated to dryness under a stream of nitrogen in the thermostatically controlled water bath maintained at 55°C for about 20 min. […] The mixture was incubated at 37°C for 30 min. […] The filtrate was analyzed for the drug content by HPLC-MS.
(§4) The concentration of the filtrate was analyzed by HPLC-MS. […] The PPB by ultrafiltration was performed in triplicates for all the compounds studied.
Series [4] has as its target T1, immobilized human serum albumin (HSA). To be noted: pH 7.
Experimental: as §1
Series [5] relates to plasma proteins. The series can be described thus: in vitro.
Experimental: as §2, §3, §4
For series [6], the target named is human serum albumin (HSA) (Homo sapiens, UniProt P02768). The series can be described thus: Drug-protein binding screening by HPLC on immobilized HSA column (HSA-HPLC). The note with it: human, pH 7.
Experimental: as §1
[7] abbreviates: reported PPB values of reference compounds, ref not printed.
The mark [8] stands for this setting: reference compounds, Chiral-HSA 50 × 3 mm column, mobile phase 0.9% NaCl (pH 7.0), 100 µg/mL, 10 µL injected.
The mark [9] stands for this setting: test compounds, Chiral-HSA column, 0.9% NaCl (pH 7.0).

Structures are written as SMILES. Counter-ions that a name gives are not always drawn. Like-named read-outs stand apart in the source and are kept apart here. Non-standard residues stand in square brackets, D forms with d. Residues, ends and D or L forms follow the SMILES beside them. Phe(4-Cl) = N[CH](Cc1ccc(Cl)cc1)C(=O)O; 2Nal = N[CH](Cc1ccc2ccccc2c1)C(=O)O; 3Pal = N[CH](Cc1cccnc1)C(=O)O

T1 sequence (P02768 25-609): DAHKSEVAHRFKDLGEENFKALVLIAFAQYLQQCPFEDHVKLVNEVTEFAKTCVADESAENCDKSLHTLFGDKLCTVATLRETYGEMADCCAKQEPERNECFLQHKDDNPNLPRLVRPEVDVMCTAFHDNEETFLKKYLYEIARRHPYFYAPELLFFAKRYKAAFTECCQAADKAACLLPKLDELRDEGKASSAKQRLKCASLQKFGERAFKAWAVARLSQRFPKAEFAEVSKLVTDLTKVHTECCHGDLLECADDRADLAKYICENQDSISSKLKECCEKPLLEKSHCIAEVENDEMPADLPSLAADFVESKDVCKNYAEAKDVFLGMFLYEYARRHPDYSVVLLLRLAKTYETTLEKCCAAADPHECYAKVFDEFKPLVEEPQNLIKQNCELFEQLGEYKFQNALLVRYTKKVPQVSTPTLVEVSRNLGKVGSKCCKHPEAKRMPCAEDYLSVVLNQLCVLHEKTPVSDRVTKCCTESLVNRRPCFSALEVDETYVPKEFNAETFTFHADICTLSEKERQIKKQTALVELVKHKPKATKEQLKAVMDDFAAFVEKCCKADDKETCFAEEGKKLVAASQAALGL
human serum albumin (HSA), sequence (P02768 25-609): as above

In the case of `OC(Cn1cncn1)(Cn1cncn1)c1ccc(F)cc1F` [Fluconazole], in series [1] (setting [7]), the PPB from literature is on record as 11.5 (11-12) %. The compound further displayed a Retention time in series [2] (setting [8]) of 1.07 min.
Consider `O=c1c(O)c(-c2ccc(O)c(O)c2)oc2cc(O)cc(O)c12` [Quercetin], for which, in series [1] (setting [7]), the PPB from literature is reported as 98.0%. This compound also returned a Retention time in series [2] (setting [8]) of 0.72 min.
For `CC(=O)NC(Cc1ccc2ccccc2c1)C(=O)NC(Cc1ccc(Cl)cc1)C(=O)NC(Cc1ccccc1)C(=O)NC(CO)C(=O)NC(CCCNC(=N)N)C(=O)NC(Cc1cccnc1)C(=O)NC(CC(C)C)C(=O)NC(CCCNC(=N)N)C(=O)N1CCCC1C(=O)NC(C)C(N)=O` (stereo not shown) [Comp. F] (Ac-[2Nal][Phe(4-Cl)]FSR[3Pal]LRPA-NH2; configuration not given here), in series [3], the PPB by ultrafiltration is 97.2%. In series [2] (setting [9]), this compound came in with a Retention time of 0.81 min.
Consider `C[C@@H]1O[C@@H](OC[C@H]2O[C@@H](Oc3c(-c4ccc(O)c(O)c4)oc4cc(O)cc(O)c4c3=O)[C@H](O)[C@@H](O)[C@@H]2O)[C@H](O)[C@H](O)[C@H]1O` [Rutoside], for which the PPB from literature in series [1] (setting [7]) is on record as 85.0 (80–90) %; in series [1] (reported PPB values of reference compounds, ref not printed, listed as rutoside), 80–90%. The compound further registered a Retention time in series [2] (setting [8]) of 13.43 min.
The compound `COc1cc(C(=O)O)ccc1O` [Vanillic acid] displayed a Retention time in series [4] (human, 100 µg/mL) of 3.11 min. Further, the PPB from literature in series [1] (setting [7]) is 56.3%.
On to `CN(C)CCC(c1ccc(Cl)cc1)c1ccccn1` (stereo not shown) [Chlorphenamine maleate], for which the PPB from literature in series [1] (setting [7]) is reported as 37.5 (25–50) %. Further, in series [2] (setting [8]), the Retention time was 5.93 min.
`C[C@@](COC12CCN(CC1)CC2)(c1ccccc1)C1CCCC1` [Comp. A] returned a Retention time in series [4] (human, 100 µg/mL) of 0.76 min. In addition, the fraction unbound in series [5] is 0.218.
The compound `COc1cc(/C=C/C(=O)O)ccc1O` [Ferulic acid] returned a Retention time in series [4] of 1.79 min. Besides, the PPB from literature in series [1] (setting [7]) is recorded as 20.6%.
On to `CN1CCOC(c2ccccc2)c2ccccc2C1` (stereo not shown) [Nefopam hydrochloride], for which the PPB from literature in series [1] (setting [7]) was 73.5 (71–76) %; in series [1] (reported PPB values of reference compounds, ref not printed, listed as nefopam), 71–76%. For the same compound, the Retention time in series [2] (setting [8]) came to 7.87 min.
As to `O=C(C1CCCCC1)N1CC(=O)N2CCc3ccccc3C2C1` (stereo not shown) [Praziquantel], the PPB from literature in series [1] (setting [7]) is recorded as 80.0%. The compound also came in with a Retention time in series [2] (setting [8]) of 12.97 min.
Regarding `Cc1cc(SCc2cnc(-c3ccc(C(F)(F)F)cc3)nc2)ccc1OCC(=O)O` [Comp. E], in series [3], the PPB by ultrafiltration was determined as 99.5% and the fraction unbound at 30 min is 0.005. The compound further returned a fraction unbound at 100 µg/mL in series [6] of less than 0.1.
In series [4] (human), `CCC(=O)O[C@H]1CC[C@H]2[C@@H]3CCC4=CC(=O)CC[C@]4(C)[C@H]3CC[C@]12C` [Testosterone propionate] returned a Retention time of 0.74 min. Besides, in series [1] (setting [7]), the PPB from literature is listed as 98.0%.
On to `CCN(CC)CCOc1ccc(C(=C(Cl)c2ccccc2)c2ccccc2)cc1` [clomifene citrate], for which, in series [2] (setting [8]), the Retention time was greater than 240 min.
Turning to `CC(=O)OCC(=O)[C@@]1(O)CC[C@H]2[C@@H]3CCC4=CC(=O)CC[C@]4(C)[C@H]3[C@@H](O)C[C@@]21C` [Hydrocortisone acetate], the PPB from literature in series [1] (setting [7]) is recorded as 90.0%. The compound further yielded a Retention time in series [2] (setting [8]) of 0.73 min.
For `CCN(CC)Cc1cc(-c2nc3c(Cl)nnc(OC)c3n2C)ccc1O` [Comp. C], in series [3], the PPB by ultrafiltration is 51.0% and the fraction unbound at 30 min was 0.485. Also, in series [6], the fraction unbound at 100 µg/mL was greater than 0.1. The compound also displayed a Retention time in series [2] (setting [9]) of 1.75 min.
Take `CNC(=C[N+](=O)[O-])NCCSCc1ccc(CN(C)C)o1` [Ranitidine hydrochloride]: in series [1] (setting [7]), the PPB from literature is recorded as 15.0 (12–18) %. The compound also had a Retention time in series [2] (setting [8]) of 1.23 min.
Turning to `Cc1cc(C)nc(NS(=O)(=O)c2ccc(N)cc2)n1` [Sulfadimidine], the PPB from literature in series [1] (setting [7]) is on record as 80.0%. In series [2] (setting [8]), this compound returned a Retention time of 6.22 min.
For `Cn1c(=O)c2c(ncn2C)n(C)c1=O` [Caffeine], in series [1] (setting [7]), the PPB from literature is reported as 22.5%. This compound showed a Retention time in series [2] (setting [8]) of 1.18 min.
Turning to `CCOc1ccc(NC(C)=O)cc1` [Phenacetin], the PPB from literature in series [1] (setting [7]) is given as 30.0%. This compound yielded a Retention time in series [2] (setting [8]) of 3.19 min.
On to `Cc1nc(C)c(C)nc1C.Cl` [Chuanxiongzine hydrochloride], for which the Retention time in series [4] is recorded as 2.23 min. Also, in series [1] (setting [7]), the PPB from literature is on record as 44.3%.
Regarding `COC(=O)[C@H]1[C@H]2C[C@@H]3c4[nH]c5cc(OC)ccc5c4CCN3C[C@H]2C[C@@H](OC(=O)c2cc(OC)c(OC)c(OC)c2)[C@@H]1OC` [Reserpine], the PPB from literature in series [1] (setting [7]) is on record as 96.0%. For the same compound, the Retention time in series [2] (setting [8]) stood at 0.71 min.
Regarding `NS(=O)(=O)c1cc2c(cc1C(F)(F)F)NC(Cc1ccccc1)NS2(=O)=O` (stereo not shown) [Bendroflumethiazide], in series [1] (setting [7]), the PPB from literature is 94.0%. The compound also gave a Retention time in series [2] (setting [8]) of 3.27 min.
With `O=C1NC(=O)C(c2ccccc2)(c2ccccc2)N1` [Phenytoin sodium], in series [1] (setting [7]), the PPB from literature is recorded as 90.0%. This compound also returned a Retention time in series [2] (setting [8]) of 15.02 min.
Regarding `CC(C)[C@]12O[C@H]1[C@@H]1O[C@]13[C@]1(O[C@H]1C[C@H]1C4=C(CC[C@@]13C)C(=O)OC4)[C@@H]2O` [Comp. B], in series [3], the fraction unbound at 30 min was 0.784. For the same compound, the Retention time in series [2] (setting [9]) is 1.70 min.
For the compound `CC(C)NCC(O)COc1cccc2ccccc12` (stereo not shown) [Propranolol hydrochloride], the PPB from literature in series [1] (setting [7]) is reported as 92.5 (90–95) %; in series [1] (reported PPB values of reference compounds, ref not printed, listed as propranolol hydrochloride) it was 90–95%. In addition, in series [2] (setting [8]), the Retention time is on record as 5.21 min.
Consider `Oc1cc(O)c2c(c1)O[C@H](c1ccc(O)c(O)c1)[C@@H](O)C2` [Catechuic acid], for which the PPB from literature in series [1] (setting [7]) is recorded as 20.7%. In series [2] (setting [8]), this compound displayed a Retention time of 1.94 min.
Turning to `CC(=O)[C@H]1CC[C@H]2[C@@H]3CCC4=CC(=O)CC[C@]4(C)[C@H]3CC[C@]12C` [Progesterone], the PPB from literature in series [1] was 97.0%. Also, the Retention time in series [2] (setting [8]) is on record as 50.02 min.
Turning to `Nc1ccc(S(=O)(=O)Nc2ncccn2)cc1` [Sulfadiazine], in series [1] (setting [7]), the PPB from literature was 43.0 (38–48) %. Besides, the Retention time in series [2] (setting [8]) is on record as 1.88 min.
In the case of `O=C(O)/C=C/c1ccc(O)c(O)c1` [Caffeic acid], in series [1] (setting [7]), the PPB from literature is 66.0%. In series [2] (setting [8]), this compound yielded a Retention time of 4.02 min.
As to `O=C(O)c1ccccc1O` [Salicylic acid], in series [1] (setting [7]), the PPB from literature was 85.0 (80–90) %.
